Legend:
[1] = tested on: human blood cells (whole blood); assay: High-gradient magnetic separation (HGMS) filtration of cells from diluted whole blood; type: cell-based; conditions: for Magnetic efficiency, E / Magnetic filtration, M / Mechanical Filtration, F / Total Filtration, T: 0.75 ml/min, 316L matrix
Text: The samples were verified for normalcy (COULTER COUNTER Model S-Plus; Coulter Electronics, Inc.) before use on the day of drawing.
Separability of cells from carrier fluids was examined using a High-Gradient Magnetic Separation (HGMS) system. The filter was a D-shaped plastic chamber 13 mm long and 118 mm^2 in cross-section, filled with stainless steel wire as noted. Packing was random, but with the major component parallel to flow. […] Suspension flows upward through the filter were controlled by a variable-speed syringe pump, fitted with a 3 ml syringe to contain the cell suspension.
Unless otherwise noted, to clean the matrix and to clear the circuit of air, the filter was flushed manually with 15 ml of the experimental carrier solution before each separation determination. With the electromagnet still de-energized, the circuit was then overfilled rapidly with the corresponding cell suspension, and the syringe pump was activated. After 1.2 ml of cell suspension had been delivered at the chosen flow rate, a one-milliliter aliquot (Al) of filter effluent was collected for use in calculating mechanical filtration levels. With filter backflow prevented, the pump syringe was refilled, the magnet energized at the preselected field intensity, and the delivery and collection (aliquot A2) steps repeated. This sequence was repeated for each selected combination of flow rate and field intensity. A 2 ml control aliquot (A3) was taken for each suspension from the reservoir used to fill the filter and the syringe pump. The aliquots were analyzed for cell count and volume, count data (A1, A2, A3) being used to calculate filter characteristics as follows (for percentages, multiply by 100:)
Mechanical Filtration, F=(A3-A1)/A3
Magnetic filtration, M=(A1-A2)/A3
Magnetic efficiency, E=(A1-A2)/A1=M/(1-F)
Total Filtration, T=(A3-A2)/A3=M+F
The solution osmolarity was adjusted to that of 40 mM erbium chloride by addition of sodium chloride. In a second experiment, 10 mM sodium dithionite in isotonic saline buffered with phosphate was employed.
Erbium chloride was dissolved in water via chelation with EDTA. Carrier solutions of 100 cc each, containing erbium chloride in the concentration of 2 mM, 5 mM, 10 mM, 20 mM, 40 mM and 50 mM respectively and EDTA in a molar ratio of 1.1:1 with the erbium chloride were prepared in the following manner for use in obtaining the data reported in Table I.
The volume was then brought to 75 ml with deionized water, and the materials were mixed in a plastic container. The solution pH was adjusted to 7.0 to 7.1 by adding sodium hydroxide solution. The osmolarity was then adjusted to physiological levels of about 300±10 mOs/L, the 100 ml volume being completed with deionized water. Carrier solutions were prepared within two hours of each experiment from stock solutions no more than one week old.
The above procedures were followed substituting the equivalent amount of dysprosium chloride for the erbium chloride in order to obtain the values reported in FIG. 1.

blood cells = assay: Cell integrity during separation (lysis, morphology, clumping, hemoglobin state); type: cell-based, human; conditions: 10 mM sodium dithionite
Procedure: In Table I, the filtration data at 0.75 ml/min is reported for whole blood diluted 1:101 with the working solution including erbium chelate at the indicated concentration. The matrix material was unannealed, 316L austenitic stainless wire, 35 micrometers in diameter, randomly packed to 11.4% of the filter volume. Table I summarizes experimental filtration data according to the concentration of Er(EDTA)^- in the carrier solution, and includes for comparative purposes, sodium dithionite at 10 mM final concentration as a substitute for the chelated lanthanide. The solution osmolarity was adjusted to that of 40 mM erbium chloride by addition of sodium chloride. In a second experiment, 10 mM sodium dithionite in isotonic saline buffered with phosphate was employed. […] Data for various field intensities are given for the higher chelate concentrations, all at constant flows of 0.75 ml/min. Carrier solutions used in each of the stated concentrations of the lanthanide chelate were prepared as described in Example 1.
Cellular hemoglobin remains in the oxygenated (and therefore the antagonistically diamagnetic) state throughout the separation process. Cell lysis was not detected. […] The cells were readily removed from the matrix by flushing with isotonic saline (0.9% NaCl by weight containing no metal chelate). […]

red blood cells = conditions: 10 mM dithionite or 20 mM nitrite, cited from earlier work; for cell separation: 1.0 Tesla, 1.0 ml/minute, filtration times of more than one minute; for separation efficiency: 2.0 Tesla, unacceptably variable from sample to sample

## O=S([O-])S(=O)[O-].[Na+].[Na+] [Sodium dithionite, sodium dithionite]
[1]; 10 mM, 0.30 T
  Magnetic efficiency, E: 13.0%
  Magnetic filtration, M: 11.6%
  Mechanical Filtration, F: 11.0%
  Total Filtration, T: 22.6%
[1]; 10 mM, 1.00 T
  Magnetic efficiency, E: 76.9%
  Magnetic filtration, M: 68.4%
  Mechanical Filtration, F: 11.0%
  Total Filtration, T: 79.4%
[1]; 50 mM, 0.48 T
  Magnetic efficiency, E: 92.2%
  Magnetic filtration, M: 88.2%
  Mechanical Filtration, F: 4.3%
  Total Filtration, T: 92.5%
[1]; 50 mM, 1.00 T
  Magnetic efficiency, E: 98.4%
  Magnetic filtration, M: 94.1%
  Mechanical Filtration, F: 4.3%
  Total Filtration, T: 98.4%
[1]; 0.3 Tesla, 430 ferritic matrix, 40 mM chelate or 10 mM sodium dithionite, 0.75 ml/min (FIG. 1)
  separation efficiency: 37%
[1]; 0.7 Tesla, 430 ferritic matrix, 10 mM sodium dithionite, identical flows
  separation efficiency: 90%
[1]; 430 ferritic matrix
  repeatable separations at efficiencies greater than 99%: not practical
Blood cells
  deoxygenation of hemoglobin: deoxygenation was confirmed spectrophotometrically
Red blood cells
  cell separation: approximately 70%
  separation efficiency: exceeding 85%

## O=N[O-].[Na+] [nitrite, sodium nitrite]
Red blood cells
  cell separation: approximately 70%
  separation efficiency: exceeding 85%
